Measured values: US11351134B2, “Small molecule agents, compositions, and formulations, for internal use, displaying inhibitory activity against gram-positive and/or gram-negative organisms” (NATUREZA, INC., priority 2017, dated 2022)

Key:
Escherichia coli = test: Broth microdilution (CLSI M07) of active component mixed with water only; format: cell-based; conditions: active component mixed with water only (miscible state); about 0.0009 wt. % to about 8 wt. %
Procedure: (§1) Initially, to determine basic characteristics, each active component was separately mixed, generally under agitated conditions, with water, and each was miscible with water. Each, after being mixed with water, was tested in a broth microdilution assay, against a variety of bacteria using amounts of the each of the lauric acid derivatives, ranging from about 0.0009 wt. % to about 8 wt. %. The bacteria included Escherichia coli, and Staphylococcus aureus (including MRSA strains). The minimum inhibitory concentration (MIC) needed to prevent growth of the target bacteria was evaluated based on a method published by Clinical Laboratory Standards Institute (CLSI), broth microdilution method M-07 (M07). […] Each of the samples containing one of the lauric acid derivatives was compared with a positive control, decanoic acid.

[1] = tested on: Staphylococcus aureus (including MRSA strains); test: as above; format: cell-based; conditions: active component mixed with water only (miscible state); about 0.0009 wt. % to about 8 wt. %
Procedure: as §1

[2] = tested on: representative Gram-positive pathogens and yeast; test: Broth microdilution of lecithin/chitosan compositions, sonicated and/or filtered; format: cell-based; conditions: composition with lecithin and chitosan
Text: In a further preparation, lauric acid derivative, 12-aminododecanoic acid or 12-amino-1-dodecanoic acid methyl ester, was suspended individually (and independently) in an organic solvent, chloroform, and mixed with water, generally under agitated conditions. Here, for each sample, the amount of water to the amount of chloroform was at least 2:1, and was as high as 10:1. This was followed by chloroform evaporation, generally under vacuum using a freeze dryer. After removal of the chloroform, a lecithin solution was added to each sample. The lecithin was in a solution of acetic acid (e.g., 98 mM acetic acid and 2 mM sodium acetate), in which the amount of lecithin in solution was between about 1% to 5%. With addition of lecithin, each sample mixture contained up to about 4.8% lecithin (or generally about 5% or less), and up to about 7.8% of one of the lauric acid derivatives (or generally about 8% or less). pH of the solution was neutral. It is noted that the lecithin should be in a suitable form (e.g., solution or granules) acceptable for internal utilization (e.g., pharmaceutical grade). The lecithin may also include cholesterol, or other lecithin variants as described above, with similar results. Chitosan was then added to each of the samples, and each sample was then independently sonicated, followed by independent sterilization by high pressure filtration. […]

[3] = format: in vivo; conditions: mice, oral capsules approximately 4 mg active component in chitosan-containing particles, three times per day for seven days
Text: Laboratory trials have shown that no resistance has developed in pathogens exposed to the compositions described herein, even with long term, repeated exposure (data not shown). In addition, no intrinsic resistance can or has been detected in target pathogens. […] A placebo group is also included, in which a group of 10 mice are given a placebo set of capsules, orally, three times per day and continued for seven days, each of the placebo set of capsules containing similarly prepared chitosan-containing particles without an active component, the preparation being generally as described herein. Initial mice have been infected with Salmonella typhimurium prior to oral delivery of one of the set of capsules. The capsules may be vegetable capsules. The capsules may have an enteric coating. For delivery, a formulation may be prepared in a manner understood in the relevant art. For delivery, a formulation may be in at least any one or more of the following forms: liquid, capsule, dried powder, mist, and the like. For delivery, the formulation will contain pharmaceutical grade materials, including one or more excipients and or fillers for internal and/or topical delivery in sufficient amounts known to those of skill in the relevant art. Flavors, colors, sugars, sugar-substitutes, and the like may also be included in any of the formulations, as is understood to those of skill in the relevant art.

COC(=O)CCCCCCCCCCCN.Cl [12-amino-1-dodecanoic acid methyl ester HCl]
Inhibitory activity against Gram-negative bacteria (e.g., E. coli) (Escherichia coli): does not, in the miscible state, demonstrate inhibitory activity | Inhibitory activity against Gram-positive bacteria (e.g., S. aureus) [1]: does not, in the miscible state, demonstrate inhibitory activity | Growth inhibitory activity against representative Gram-positive pathogens and yeast [2]: exhibited growth inhibitory activity | Safety in animal trials [3]: no safety concerns
